The text below walks through data of ChEMBL document CHEMBL5696442, “Discovery of type II inhibitors of TGFβ-activated kinase 1 (TAK1) and mitogen-activated protein kinase kinase kinase kinase 2 (MAP4K2)” (J Med Chem, 2015).

For assay [1], the target named is T1, Receptor-interacting serine/threonine-protein kinase 4 (Homo sapiens) (UniProt P57078).
T1 sequence (whole entry): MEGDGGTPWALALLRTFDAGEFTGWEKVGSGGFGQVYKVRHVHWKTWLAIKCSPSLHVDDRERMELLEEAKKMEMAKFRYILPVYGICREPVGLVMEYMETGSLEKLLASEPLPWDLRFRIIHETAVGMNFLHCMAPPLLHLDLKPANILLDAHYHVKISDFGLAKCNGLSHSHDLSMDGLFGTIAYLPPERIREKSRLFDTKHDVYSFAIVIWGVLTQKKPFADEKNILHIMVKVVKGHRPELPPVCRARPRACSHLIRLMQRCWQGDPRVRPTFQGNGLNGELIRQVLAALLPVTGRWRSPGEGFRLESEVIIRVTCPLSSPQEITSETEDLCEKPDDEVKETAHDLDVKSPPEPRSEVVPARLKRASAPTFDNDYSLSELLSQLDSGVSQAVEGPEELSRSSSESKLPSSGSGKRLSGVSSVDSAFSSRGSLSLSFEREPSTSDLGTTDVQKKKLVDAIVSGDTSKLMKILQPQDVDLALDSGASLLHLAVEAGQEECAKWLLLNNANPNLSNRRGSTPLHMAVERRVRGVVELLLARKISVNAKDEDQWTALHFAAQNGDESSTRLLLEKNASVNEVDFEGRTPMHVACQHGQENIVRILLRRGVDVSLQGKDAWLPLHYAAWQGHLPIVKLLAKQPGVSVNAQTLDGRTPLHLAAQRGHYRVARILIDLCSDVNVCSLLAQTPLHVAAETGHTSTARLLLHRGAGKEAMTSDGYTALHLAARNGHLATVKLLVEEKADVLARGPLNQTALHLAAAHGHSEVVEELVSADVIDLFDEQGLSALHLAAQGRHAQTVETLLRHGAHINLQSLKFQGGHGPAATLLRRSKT
Kind of assay: Inhibition of RIPK4 (unknown origin) at 10 uM by Ambit Kinomescan binding assay.

In assay [2] the target is T2, Mitogen-activated protein kinase kinase kinase 15 (Homo sapiens) (UniProt Q6ZN16).
T2 sequence (whole entry): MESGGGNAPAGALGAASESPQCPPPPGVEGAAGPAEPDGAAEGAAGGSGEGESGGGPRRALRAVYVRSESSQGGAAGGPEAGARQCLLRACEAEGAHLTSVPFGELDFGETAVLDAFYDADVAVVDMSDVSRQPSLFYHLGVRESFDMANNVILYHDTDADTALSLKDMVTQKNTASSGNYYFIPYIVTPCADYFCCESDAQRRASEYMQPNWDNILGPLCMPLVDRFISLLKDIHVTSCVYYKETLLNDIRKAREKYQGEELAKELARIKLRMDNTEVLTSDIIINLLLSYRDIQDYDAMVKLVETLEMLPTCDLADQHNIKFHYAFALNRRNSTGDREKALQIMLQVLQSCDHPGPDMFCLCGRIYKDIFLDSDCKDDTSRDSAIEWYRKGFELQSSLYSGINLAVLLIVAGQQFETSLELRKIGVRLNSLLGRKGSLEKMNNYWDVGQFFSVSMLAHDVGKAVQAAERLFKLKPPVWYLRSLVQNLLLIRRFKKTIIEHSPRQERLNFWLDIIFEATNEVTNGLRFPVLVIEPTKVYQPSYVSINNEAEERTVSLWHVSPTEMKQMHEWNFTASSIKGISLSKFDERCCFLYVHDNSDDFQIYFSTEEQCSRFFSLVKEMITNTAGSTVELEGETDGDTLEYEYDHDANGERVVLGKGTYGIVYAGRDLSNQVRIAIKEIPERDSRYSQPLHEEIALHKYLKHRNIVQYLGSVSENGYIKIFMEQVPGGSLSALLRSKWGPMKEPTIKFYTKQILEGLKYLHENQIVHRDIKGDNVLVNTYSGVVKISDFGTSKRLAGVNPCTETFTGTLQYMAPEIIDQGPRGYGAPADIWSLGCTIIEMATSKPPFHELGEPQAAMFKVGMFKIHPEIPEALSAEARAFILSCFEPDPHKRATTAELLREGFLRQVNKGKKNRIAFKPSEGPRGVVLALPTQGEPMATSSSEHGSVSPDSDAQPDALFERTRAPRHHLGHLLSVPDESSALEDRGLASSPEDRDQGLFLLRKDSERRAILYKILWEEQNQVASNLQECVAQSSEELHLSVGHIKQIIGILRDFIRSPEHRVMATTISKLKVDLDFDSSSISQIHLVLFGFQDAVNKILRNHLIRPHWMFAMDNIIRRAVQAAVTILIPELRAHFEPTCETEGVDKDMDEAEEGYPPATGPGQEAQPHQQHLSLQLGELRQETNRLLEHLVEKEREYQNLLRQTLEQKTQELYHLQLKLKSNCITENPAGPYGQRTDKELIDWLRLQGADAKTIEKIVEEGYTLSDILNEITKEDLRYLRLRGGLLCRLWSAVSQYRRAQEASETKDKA
Kind of assay: Inhibition of MAP3K15 Lys1 labeling site harbouring IAIKEIPER in human A-375 cells at 5 uM by KiNativ Profiling analysis relative to control. It counts as cell-based.

The target in assay [3] is Mitogen-activated protein kinase kinase kinase 20 (Homo sapiens, UniProt Q9NYL2). Nature of the assay: Inhibition of ZAK K1 labeling site in human Huh-7 cells at 10 uM by KiNativ Profiling analysis relative to control. It counts as cell-based.
Chain of Mitogen-activated protein kinase kinase kinase 20 (Q9NYL2 2-800 limits assumed): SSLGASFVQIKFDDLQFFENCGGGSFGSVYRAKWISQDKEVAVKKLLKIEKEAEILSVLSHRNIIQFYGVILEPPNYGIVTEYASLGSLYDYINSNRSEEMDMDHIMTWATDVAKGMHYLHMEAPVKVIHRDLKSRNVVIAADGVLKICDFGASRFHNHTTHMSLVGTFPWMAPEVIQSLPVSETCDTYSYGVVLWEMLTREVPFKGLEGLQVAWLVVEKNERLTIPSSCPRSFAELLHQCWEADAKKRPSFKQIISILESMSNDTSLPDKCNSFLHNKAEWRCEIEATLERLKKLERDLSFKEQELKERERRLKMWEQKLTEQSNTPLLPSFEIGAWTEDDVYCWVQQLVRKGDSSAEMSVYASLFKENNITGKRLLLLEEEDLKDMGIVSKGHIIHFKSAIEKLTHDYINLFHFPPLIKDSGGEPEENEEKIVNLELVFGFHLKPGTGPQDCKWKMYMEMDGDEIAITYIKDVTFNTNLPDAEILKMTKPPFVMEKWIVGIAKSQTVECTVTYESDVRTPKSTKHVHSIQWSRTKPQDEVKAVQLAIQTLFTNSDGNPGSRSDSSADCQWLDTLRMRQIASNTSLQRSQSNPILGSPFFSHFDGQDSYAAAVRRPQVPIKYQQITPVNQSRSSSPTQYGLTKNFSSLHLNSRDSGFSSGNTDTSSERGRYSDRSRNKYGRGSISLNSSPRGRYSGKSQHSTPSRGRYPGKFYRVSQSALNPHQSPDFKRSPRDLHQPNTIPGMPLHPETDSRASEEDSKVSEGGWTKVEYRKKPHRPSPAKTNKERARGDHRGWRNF
A short description of assay [4]: Inhibition of KHS1 Lys2 labeling site harbouring DIKGANILLTDHGDVKLADFGVAAK in human Huh-7 cells at 1 uM by KiNativ Profiling analysis relative to control. The settings on record: condition cancer.
Assay [5] addresses Serine/threonine-protein kinase Nek7 (Homo sapiens) (UniProt Q8TDX7). Nature of the assay: Inhibition of NEK7 Lys2 labeling site harbouring DIKPANVFITATGVVK in human Huh-7 cells at 1 uM by KiNativ Profiling analysis relative to control. Type of assay: cell-based.

The source made the active and inactive calls. No cut-off for these calls is given here.

Chain of Serine/threonine-protein kinase Nek7 (Homo sapiens) (Q8TDX7 whole entry, looked up): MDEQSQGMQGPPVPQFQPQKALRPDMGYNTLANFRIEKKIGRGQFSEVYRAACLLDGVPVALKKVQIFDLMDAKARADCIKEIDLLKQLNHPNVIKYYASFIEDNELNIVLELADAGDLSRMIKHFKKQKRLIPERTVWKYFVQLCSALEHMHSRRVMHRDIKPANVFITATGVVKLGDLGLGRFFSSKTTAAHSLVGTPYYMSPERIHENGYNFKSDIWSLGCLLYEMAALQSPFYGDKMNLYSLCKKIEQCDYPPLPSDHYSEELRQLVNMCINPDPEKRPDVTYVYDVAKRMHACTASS

Take `CCN1CCN(Cc2ccc(NC(=O)c3ccc(C)c(Oc4ccnc5[nH]ccc45)c3)cc2C(F)(F)F)CC1`: in assay [1], the inhibition (as a rule, the relative decrease from the control value, in per cent) was “inactive”. Besides, the inhibition in assay [2] is -0.6%; in assay [3], 83.4%.
On to `CNc1cc(Oc2cc(C(=O)Nc3cc(N4CCN(C)CC4)cc(C(F)(F)F)c3)ccc2C)ncn1`, for which the inhibition at 1 µM in assay [4] is 19.8%. The inhibition in assay [5] was -2.7%.
